Values joined by “and” are separate entries in the source; they are usually repeats but may differ in a detail not shown here. Equal values may be shown once.
Conditions: Crystal, Calculated from knudsen effusion weight loss

O=S(=O)([O-])[O-].[K+].[K+] [potassium sulfate]
Conditions	vapor or sublimation pressure
1193 K	2.255e-05 kPa
1201 K	4.069e-05 kPa
1202 K	3.268e-05 kPa
1207 K	5.831e-05 kPa
1212 K	4.467e-05 kPa
1214 K	4.592e-05 kPa and 5.841e-05 kPa
1218 K	4.274e-05 kPa
1221 K	7.584e-05 kPa
1223 K	9.497e-05 kPa
1224 K	6.12e-05 kPa
1225 K	5.984e-05 kPa
1226 K	7.236e-05 kPa
1227 K	0.0001197 kPa
1228 K	0.0001335 kPa and 9.75e-05 kPa
1233 K	6.173e-05 kPa
1235 K	6.966e-05 kPa and 0.0001125 kPa
1238 K	0.000154 kPa and 7.448e-05 kPa
1239 K	0.000181 kPa and 0.0001288 kPa
1240 K	9.576e-05 kPa
1241 K	0.0001668 kPa
1243 K	0.0002943 kPa and 0.0001001 kPa
1244 K	0.000186 kPa [middle of 4 runs]
1245 K	0.0001671 kPa
1246 K	0.0001915 kPa and 0.0001729 kPa
1247 K	0.0002093 kPa
1248 K	0.0002174 kPa and 0.0001453 kPa
1253 K	0.0001091 kPa
1254 K	0.0001949 kPa
1255 K	0.0002829 kPa and 0.0001188 kPa
1258 K	0.000281 kPa and 0.0003264 kPa
1259 K	0.0001516 kPa and 0.0002187 kPa and 0.0003679 kPa
1260 K	0.0001623 kPa and 0.0004471 kPa
1263 K	0.0002656 kPa
1264 K	0.0005652 kPa and 0.0002789 kPa
1265 K	0.0003443 kPa and 0.0002937 kPa
1267 K	0.0005201 kPa and 0.0003602 kPa
1268 K	0.0003503 kPa [middle of 4 runs]
1269 K	0.0001536 kPa
1271 K	0.0003904 kPa
1272 K	0.0005138 kPa and 0.0005765 kPa and 0.0003016 kPa
1273 K	0.0001617 kPa and 0.0001919 kPa
1275 K	0.0006554 kPa
1276 K	0.0003422 kPa
1277 K	0.000463 kPa
1280 K	0.0004126 kPa
1281 K	0.0005285 kPa and 0.0002784 kPa
1282 K	0.000452 kPa
1283 K	0.0007481 kPa [middle of 5 runs]
1286 K	0.0004333 kPa
1288 K	0.0005671 kPa and 0.0005922 kPa and 0.0005203 kPa
1290 K	0.0009328 kPa and 0.0004622 kPa
1292 K	0.000853 kPa and 0.0003739 kPa and 0.0005323 kPa
1296 K	0.0006593 kPa and 0.0005992 kPa
1297 K	0.001092 kPa
1300 K	0.0007532 kPa [middle of 4 runs]
1301 K	0.0007786 kPa
1302 K	0.0004586 kPa and 0.0006547 kPa
1303 K	0.0003659 kPa
1304 K	0.0006238 kPa
1305 K	0.0008515 kPa [middle of 4 runs]
1306 K	0.001457 kPa
1308 K	0.0009057 kPa
1309 K	0.0005351 kPa and 0.000795 kPa
1311 K	0.001559 kPa
1313 K	0.001473 kPa
1314 K	0.001 kPa and 0.0008818 kPa
1315 K	0.0006036 kPa
1317 K	0.000929 kPa
1318 K	0.000916 kPa and 0.0006586 kPa
1320 K	0.001024 kPa
1325 K	0.001188 kPa and 0.001093 kPa
1326 K	0.0008296 kPa
1330 K	0.0008553 kPa and 0.001278 kPa
1332 K	0.001415 kPa
1334 K	0.00134 kPa
1335 K	0.001459 kPa
1336 K	0.001412 kPa
1341 K	0.001475 kPa
1343 K	0.001564 kPa
1347 K	0.001721 kPa
1349 K	0.001744 kPa
1352 K	0.001919 kPa
1355 K	0.001941 kPa
1359 K	0.002022 kPa

Reference: the NIST ThermoML archive (doi:10.1016/j.tca.2013.10.024)
